Where “and” joins values, the source holds several entries; their conditions need not be identical. Identical values can stand only once.
Columns and labels:
[1] = molecular target: AChE (Electrophorus electricus) (Electrophorus electricus, UniProt O42275); assay: biochemical; settings: for IC50: AChE from Electrophorus electricus, average from three independent experiments, ^c = IC50 greater than 0.5 mg/mL
[2] = molecular target: T1, butyrylcholinesterase (BuChE) from equine serum (Equus caballus, UniProt P81908); assay: BuChE inhibition, Ellman method, 96-well plates; format: biochemical; settings: average from three independent experiments, ^c = IC50 greater than 0.5 mg/mL
T1 construct: an AChE/BuChE solution (50 μL, 0.25 unit/mL) from Electroporus electricus and equine serum, respectively; from tissue; host or cells: equine serum
T1 sequence (P81908 whole entry): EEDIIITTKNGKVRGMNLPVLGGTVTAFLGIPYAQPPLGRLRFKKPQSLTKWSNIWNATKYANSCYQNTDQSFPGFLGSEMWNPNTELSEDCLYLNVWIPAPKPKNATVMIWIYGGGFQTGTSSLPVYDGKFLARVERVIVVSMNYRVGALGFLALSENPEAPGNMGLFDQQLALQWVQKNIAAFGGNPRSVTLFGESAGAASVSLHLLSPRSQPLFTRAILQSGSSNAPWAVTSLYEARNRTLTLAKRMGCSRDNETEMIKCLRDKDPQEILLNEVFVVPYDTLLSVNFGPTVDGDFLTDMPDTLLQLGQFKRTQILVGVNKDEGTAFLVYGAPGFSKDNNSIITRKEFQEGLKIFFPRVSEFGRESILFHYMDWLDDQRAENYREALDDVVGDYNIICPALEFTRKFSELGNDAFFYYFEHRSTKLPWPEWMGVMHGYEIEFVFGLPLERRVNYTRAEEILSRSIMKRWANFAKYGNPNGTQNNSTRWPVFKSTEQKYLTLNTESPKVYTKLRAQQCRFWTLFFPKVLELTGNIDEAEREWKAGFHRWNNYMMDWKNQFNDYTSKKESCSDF

[3] = molecular target: AChE (Electrophorus electricus, UniProt O42275); assay: Kinetic characterization of AChE inhibition (Lineweaver-Burk, Ellman's method); format: biochemical; settings: substrate acetylthiocholine; for type of AChE inhibition: Lineweaver-Burk plots, AChE 0.02U; for Vmax: in presence of inhibitor, nonlinear regression
Sequence of AChE (O42275 24-633): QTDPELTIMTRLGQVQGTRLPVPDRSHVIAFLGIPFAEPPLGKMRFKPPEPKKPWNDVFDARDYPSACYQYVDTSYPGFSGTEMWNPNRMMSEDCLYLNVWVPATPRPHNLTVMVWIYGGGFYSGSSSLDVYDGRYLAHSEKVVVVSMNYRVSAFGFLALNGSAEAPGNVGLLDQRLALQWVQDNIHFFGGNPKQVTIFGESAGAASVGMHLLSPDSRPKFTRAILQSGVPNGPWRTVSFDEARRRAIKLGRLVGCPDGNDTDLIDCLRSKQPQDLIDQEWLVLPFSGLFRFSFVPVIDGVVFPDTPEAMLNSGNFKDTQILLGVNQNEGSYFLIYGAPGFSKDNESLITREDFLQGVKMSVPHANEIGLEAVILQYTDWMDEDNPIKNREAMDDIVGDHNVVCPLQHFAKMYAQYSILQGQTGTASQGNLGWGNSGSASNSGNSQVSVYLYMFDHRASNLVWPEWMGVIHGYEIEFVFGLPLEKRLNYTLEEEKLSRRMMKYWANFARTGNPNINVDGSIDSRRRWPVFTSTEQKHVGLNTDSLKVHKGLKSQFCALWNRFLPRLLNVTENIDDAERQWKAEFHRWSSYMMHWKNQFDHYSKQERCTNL
Method: The kinetics of this new class of AChE inhibitors were studied in detail using compounds 7f and 7g as examples. The nature of AChE inhibition, caused by these two compounds, was investigated by the graphical analysis of steady-state inhibition data (Figure 2A,B). […] The values of Km and Vmax were calculated by nonlinear regression according to studies by Abell et al., where Vmax was maintained at the same value while Km value was increased.
Figure 2 Lineweaver-Burk plot of AChE (0.02U) with substrate acetylthiocholine, in the absence and presence of inhibitors 7g (A), 7f (B).
Kinetic characterization of AChE was performed by means of Ellman’s method. […]. Enzyme kinetic characterization studies were performed under same incubation conditions as described above using acetylthiocholine as substrate and DTNB was used as chromophoric reagent. A parallel control with no inhibitor in the mixture was used for comparison. Each concentration was analyzed in triplicate; and Lineweaver-Burk (1/V vs. 1/[S]) plot was constructed using Sigma Plot 10.0 version software.

Sequence of AChE (Electrophorus electricus) (O42275 24-633): as above

| Structure (SMILES) | IC50 [1] | IC50 [2] [µM] | type of AChE inhibition [3] | Vmax [3] | Selectivity for AChE (selectivity index) ([1]; defined as IC50 (BuChE)/IC50 (AChE)) |
| --- | --- | --- | --- | --- | --- |
| Cc1cc(/C=C(\C#N)c2nc3ccccc3s2)no1 [7a, (E)-2-(Benzo[d]thiazol-2-yl)-3-(5-methylisoxazol-3-yl)acrylonitrile] | 1274 ± 0.7 µM | > 1870 | – | – | – |
| N#C/C(=C\c1cc(-c2ccccc2)on1)c1nc2ccccc2s1 [7b, (E)-2-(Benzo[d]thiazol-2-yl)-3-(5-phenylisoxazol-3-yl)acrylonitrile] | 1179 ± 0.5 µM | 1396.6 ± 0.8 | – | – | – |
| N#C/C(=C\c1cc(-c2ccc(F)cc2)on1)c1nc2ccccc2s1 [7c, (E)-2-(Benzo[d]thiazol-2-yl)-3-[5-(4-fluorophenyl)isoxazol-3-yl]acrylonitrile] | 699 ± 0.3 µM | > 1440 | – | – | – |
| N#C/C(=C\c1ccc(N2CCOCC2)cc1)c1nc2ccccc2s1 [7d, (E)-2-(Benzo[d]thiazol-2-yl)-3-(4-morpholin-4-ylphenyl)acrylonitrile] | 504 ± 1 µM | > 1440 | – | – | – |
| N#C/C(=C\c1ncc[nH]1)c1nc2ccccc2s1 [7e, (E)-2-(Benzo[d]thiazol-2-yl)-3-(1H-imidazol-2-yl)acrylonitrile] | 303 ± 0.8 µM | > 1980 | – | – | – |
| N#C/C(=C\c1cccnc1)c1nc2ccccc2s1 [7f, (E)-2-(Benzo[d]thiazol-2-yl)-3-(pyridin-3-yl)acrylonitrile] | 155 µM and 103 µM | > 2290 | competitive inhibitors | 0.07078 | – |
| N#C/C(=C\c1ccc(-c2ccc(Cl)cc2)o1)c1nc2ccccc2s1 [7g, (E)-2-(Benzo[d]thiazol-2-yl)-3-[5-(4-chlorophenyl)furan-2-yl]acrylonitrile] | 64 ± 0.6 µM | 474 | competitive inhibitors | 0.2236 | 7.40 |
| Cc1nn(-c2ccccc2)c(Cl)c1/C=C(\C#N)c1nc2ccccc2s1 [7h, (E)-2-(Benzo[d]thiazol-2-yl)-3-(5-chloro-3-methyl-1-phenyl-1H-pyrazol-4-yl)acrylonitrile] | > 1330 µM | > 1330 | – | – | – |
| N#C/C(=C\c1ccco1)c1nc2ccccc2s1 [7i, (E)-2-(Benzo[d]thiazol-2-yl)-3-(2-furyl)acrylonitrile] | > 1980 µM | 1883 ± 0.8 | – | – | – |
| N#C/C(=C\c1ccc(-c2ccccc2)cc1)c1nc2ccccc2s1 [7j, (E)-2-(Benzo[d]thiazol-2-yl)-3-(1,1'-biphenyl-4-yl)acrylonitrile] | > 1480 µM | 1273 ± 0.7 | – | – | – |
| N#C/C(=C\c1ccccn1)c1nc2ccccc2s1 [7k, (E)-2-(Benzo[d]thiazol-2-yl)-3-(pyridin-2-yl)acrylonitrile] | > 1900 µM | > 1900 | – | – | – |

— PMC6269038, “A Novel Class of Selective Acetylcholinesterase Inhibitors: Synthesis and Evaluation of (E)-2-(Benzo[d]thiazol-2-yl)-3-heteroarylacrylonitriles” (Molecules, 2012)
